2 compounds from patent US8664397B2, “Pyrrolopyridine-2-carboxylic acid amide derivative useful as inhibitor of glycogen phosphorylase” (Prosidion Limited, priority 2004, dated 2014) can be followed below.

Series [1] has as its target T1, Rabbit muscle glycogen phosphorylase a (Oryctolagus cuniculus, UniProt P00489).
T1 construct: purchased Sigma P1261; host or cells: rabbit muscle
T1 sequence (P00489 2-843 limits assumed): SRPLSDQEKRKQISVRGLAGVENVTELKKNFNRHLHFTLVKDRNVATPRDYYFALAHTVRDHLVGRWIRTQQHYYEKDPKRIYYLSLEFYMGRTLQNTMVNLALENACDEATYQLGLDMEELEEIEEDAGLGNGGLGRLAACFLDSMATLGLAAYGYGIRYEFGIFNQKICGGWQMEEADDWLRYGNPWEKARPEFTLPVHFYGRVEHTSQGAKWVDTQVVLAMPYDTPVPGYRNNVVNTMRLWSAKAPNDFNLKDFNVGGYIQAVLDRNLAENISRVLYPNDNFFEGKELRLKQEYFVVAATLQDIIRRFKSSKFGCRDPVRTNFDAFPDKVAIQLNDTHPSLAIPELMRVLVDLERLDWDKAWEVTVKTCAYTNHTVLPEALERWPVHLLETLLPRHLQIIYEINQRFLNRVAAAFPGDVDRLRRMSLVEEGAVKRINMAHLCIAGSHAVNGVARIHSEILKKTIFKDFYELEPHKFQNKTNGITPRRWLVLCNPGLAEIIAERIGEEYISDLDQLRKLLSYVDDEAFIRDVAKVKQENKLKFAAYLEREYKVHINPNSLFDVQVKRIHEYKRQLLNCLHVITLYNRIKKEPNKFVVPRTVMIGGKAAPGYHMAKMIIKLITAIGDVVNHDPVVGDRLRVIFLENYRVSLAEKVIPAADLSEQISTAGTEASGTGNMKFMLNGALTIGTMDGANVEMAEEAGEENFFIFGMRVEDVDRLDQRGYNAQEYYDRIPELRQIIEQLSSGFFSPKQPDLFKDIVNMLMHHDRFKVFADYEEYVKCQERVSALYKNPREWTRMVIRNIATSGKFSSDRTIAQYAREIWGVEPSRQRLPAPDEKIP
Kind of series: Glycogen phosphorylase assay in vitro (reverse direction, malachite green phosphate detection). The note with it: 50 mM Hepes pH 7.2, 7.5 mM glucose, 0.5 mM glucose-1-phosphate, 1 mg/mL glycogen, 30° C. for 30 min. Format: biochemical. The source says: α-D-Glucose-1-phosphate (disodium salt), Glycogen, D-Glucose, Malachite Green Hydrochloride, Ammonium Molybdate tetrahydrate, BSA, HEPES and rabbit muscle phosphorylase a (P1261) were purchased from Sigma. All other reagents were analytical grade.
An assay for glycogen phosphorylase activity in the reverse direction was developed based on the method described by Engers et al., Can. J. Biochem., 1970, 48, 746-754]. Rabbit muscle glycogen phosphorylase a (Sigma) was reconstituted at a stock concentration of 100 μg/mL in 25 mM Tris/HCl. […] in a 96-well plate in a final volume of 100 μL containing 50 mM Hepes pH 7.2, 7.5 mM glucose, 0.5 mM glucose-1-phosphate and 1 mg/mL glycogen. After incubation at 30° C. for 30 min, the inorganic phosphate released from glucose-1-phosphate was measured by the addition of 150 μL of malachite green/molybdate solution prepared as follows: 5 mL of 4.2% ammonium molybdate in 4N HCl, 15 mL of 0.045% malachite green, 50 μL of Tween 20. Following a 30 min incubation at room temperature, the absorbance was measured at 620 nm. For IC50 determination, 10 μL of a serial dilution of compound (100 μM to 0.004 μM) in DMSO was added to each reaction in duplicate with the equivalent concentration of DMSO added to the control uninhibited reaction. Dose response curves were then obtained by plotting % inhibition versus log10 compound concentration. […]

For series [2] the following is noted: thermogravimetric method, nitrogen flow, 5° C./min heating rate. As for the experimental part: Thermogravimetric analysis was performed as follows: A sample of the material (ca. 4-5 mg) was heated in a platinum vessel using slow inert gas (nitrogen) flow with 5° C./min heating rate using Derivatograph C instrument.
Thermal stability data on the product of Example 1 were obtained by the thermogravimetric method described above.

As a reminder, the IC50 is the concentration needed to halve the response being measured. High values mean a need for much substance, low ones inhibition by little substance. For `O=C(N[C@@H](Cc1ccc(F)cc1)C(=O)N1CCC(O)CC1)c1cc2cc(Cl)ncc2[nH]1` [Formula (I), 5-chloro-1H-pyrrolo[2,3-c]pyridine-2-carboxylic acid [1-(S)-(4-fluorobenzyl)-2-(4-hydroxypiperidin-1-yl)-2-oxoethyl]amide], in series [1], the concentration for half-maximal inhibition (IC50) is less than 1000 µM. On to `Cl.O=C(N[C@@H](Cc1ccc(F)cc1)C(=O)N1CCC(O)CC1)c1cc2cc(Cl)ncc2[nH]1` [Example 1], for which, in series [2], the “Thermal stability (temperature below which the substance appeared to be stable)” value was “below 190 °C”.
